Laboratory results: patent US11325907B2, “Crystal form of 1H-imidazo[4,5-b]pyridine-2(3H)-one compound and preparation process therefor” (MEDSHINE DISCOVERY INC., priority 2018, dated 2022)

What was measured:
[1] = test system: collagen-induced arthritis in mice; test: In vivo CIA model (collagen-induced arthritis); parameters: species or system DBA/1 mice; Average clinical symptom score: dose or concentration left out as unconfirmed; key to Total pathological score (both hind limbs): each of 4 joint-damage aspects scored 0-4, summed over both hind limbs; conditions: for Total pathological score (both hind limbs): day 38, Mean±SEM
From the text: A series of symptoms similar to human psoriatic arthritis, such as redness and swelling of the joint, articular cartilage damage, and capsula articularis damage are elicited in the model by injection of type II collagen to activate reactivity of B cells, T cell on bone collagen, and the activated B cells and T cells enter the joints to cause joint inflammation. During pre-clinical evaluation of candidate compounds for treating psoriatic arthritis, collagen-induced arthritis in mice is often used to evaluate the effectiveness.
The purpose of this experiment was to study the therapeutic effect of Compound 1 on collagen-induced arthritis in mice, so as to provide preclinical pharmacodynamic relevant information for subsequent clinical studies.
1. Type II collagen/complete Freund's adjuvant immunization
Preparation of acetic acid: Diluting acetic acid to 100 mM, which was filtered with 0.22 um filter membrane and stored at 4° C.
Bovine type II collagen solution: Dissolving bovine type II collagen (CII) in acetic acid solution, which was stored at 4° C. overnight.
Preparation of emulsion: Mixing the CII solution stored overnight with equal volume of the complete Freund's adjuvant and homogenize the mixture with high-speed homogenizer until the solution formed a stable emulsion.
Preparation of lipopolysaccharide (LPS): Weighing LPS, adding normal saline, and mixing until a stable solution with concentration of […] was formed.
The mice were randomly assigned to different treatment groups. The day of the first immunization was recorded as day 0, and the subsequent days were marked sequentially.
After DBA/1 mice were anesthetized with isoflurane, the prepared collagen emulsion was injected subcutaneously in the tail.
On day 23, 100 μl of LPS solution was injected intraperitoneally.
On day 27, when the average clinical score reached about 1, 60 mice with moderate onset were selected, and they were re-randomized according to body weight and score, with 10 mice in each group.
Dexamethasone as positive control drug in 0.3 mg/kg dose group is commonly used in the CIA model. In addition, the relevant dose design of Compound 1 and the control compound Apremilast were determined according to the results of earlier preliminary experiments. Group 1 was normal mice without any treatment; Group 2 was vehicle control group and was administered vehicle; Group 3 was administered dexamethasone at a dose of 0.3 mg/kg; Group 4 was administered Apremilast at a dose of 5 mg/kg; Group 5, Group 6, and Group 7 were administered Compound 1 with doses of 0.3, 1, and 3 mg/kg, respectively. Administration was given once a day for 11 days in total. The volume of intragastric administration was 10 ml/kg.
Clinical observation: From 7 days before immunization to 23 days after immunization, the basic health status and body weight changes of DBA/1 mice were observed daily (recorded once a week). After the 23rd day, the health status, morbidity and body weight change of the mice were observed daily (recorded at least three times a week) until the end of the experiment.
Clinical score: After LPS injection, the morbidities of mice were observed every day. After the onset of disease in mice (clinical symptoms of arthritis), they were scored according to severity of conditions (redness and swelling, joint deformation) according to 0-4 point standard, with a maximum score of 4 for each limb, and a maximum score of 16 for each animal. At least three times of scoring were performed a week.
Pathology: On day 38, the mouse was euthanized. The two posterior limbs of the mouse were taken, soaked with 10% formalin solution, decalcified with formic acid solution, embedded with paraffin, sectioned, stained with hematoxylin-eosin (HE), and observed with photomicrography. The degree of joint damage was evaluated in four aspects: inflammatory cell infiltration, pannus formation, cartilage injury and bone resorption, and scored according to 0-4 score standard. […]

[2] = biological target: T1, phosphodiesterase 4B subtype (PDE4B) (Homo sapiens, UniProt Q07343); test: Inhibitory activity on PDE4B enzyme (fluorescence polarization); type: biochemical
T1 construct: amino acid 305 terminal; GST (N); made in house; host or cells: Sf9 insect cells (baculovirus)
T1 sequence (Q07343 305-736 limits assumed): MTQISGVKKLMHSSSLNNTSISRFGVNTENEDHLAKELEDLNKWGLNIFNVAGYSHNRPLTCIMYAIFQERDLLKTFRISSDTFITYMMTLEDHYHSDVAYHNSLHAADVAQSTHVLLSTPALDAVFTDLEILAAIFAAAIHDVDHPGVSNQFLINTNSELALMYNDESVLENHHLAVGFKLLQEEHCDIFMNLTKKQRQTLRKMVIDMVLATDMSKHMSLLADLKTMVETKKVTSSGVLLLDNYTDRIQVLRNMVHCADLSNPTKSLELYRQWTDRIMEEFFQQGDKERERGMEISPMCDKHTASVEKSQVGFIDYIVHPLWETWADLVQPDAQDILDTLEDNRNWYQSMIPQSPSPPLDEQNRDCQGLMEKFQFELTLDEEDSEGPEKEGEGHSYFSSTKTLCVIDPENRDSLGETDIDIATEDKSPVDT
Protocol: This biological experiment based on fluorescence polarization was used to determine AMP/GMP expression, that is, to show enzyme activity by tracking AMP/GMP antibody binding.
Experimental buffer solution: 10 mM Trihydroxymethyl aminomethane-hydrochloric acid buffer solution (Tris-HCl) (pH 7.5), 5 mM MgCl2, 0.01% Polyoxyethylene lauryl ether (Brij 35), 1 mM Dithiothreitol (DTT), and 1% DMSO.
Enzymes: Recombinant humanized PDE4B (Genebank Accession Number NM_002600; amino acid 305 terminal) was expressed with baculovirus in Sf9 insect cells using N-terminal GST tag. MW=78 kDa.
Enzyme substrate: 1 μM cAMP
Detection: Transcreener®AMP2/GMP2 antibody and AMP2/ GMP2 AlexaFluor633 tracing.
• 1. Dissolving the recombinant human PDE4B enzyme and enzyme substrate (1 μM cAMP) in freshly prepared experimental buffer; • 2. Transferring the above PDE4B enzyme buffer solution to reaction wells; • 3. Adding Compound 1 dissolved with 100% DMSO to the reaction well with PDE4B enzyme buffer solution via acoustic technology (echo 550 nanoliter range) and incubating for 10 min at room temperature; • 4. […] The range of fluorescence polarization determination is Ex/Em=620/688.
Data Analysis: The fluorescence polarization signal was converted into nM according to the AMP/GMP standard curve and the control % enzyme activity relative to the DMSO calculated by Excel software. […]

[3] = test system: TNFα production in human peripheral blood mononuclear cells (hPBMC); test: Inhibition of LPS-induced TNFα production in hPBMC; type: cell-based
Protocol: The inhibitory activity of Compound 1 of lipopolysaccharide (LPS)-induced TNFα production in human peripheral blood mononuclear cells.
• 1. Collecting normal human whole blood, which was anticoagulated with EDTA-K2 anticoagulation tube; • 2. Separating PBMC with Ficoll density gradient centrifugation, counting and adjusting the cell concentration to 2×10^6/mL; • 3. To U-bottom 96-well plate were added 2×10^5 cells/well, LPS 1 ng/mL was added, various concentrations of compound at 100 μM, 10 μM, 1 μM, 100 nM, 10 nM, 1 nM, 100 pM, 10 pM, 200 μl system/well, in duplicated wells; • 4. Incubating for 24 h, collecting the supernatant; • 5. Detecting the level of TNFα in supernatant with ELISA, fitting the inhibition curve and calculating IC50 with Graphpad Prism software.

[4] = Mus musculus, po, 264 h, 0.3 mg/kg gavage once a day for 11 days, read-out: Inhibition rate of area under the clinical score curve (AUC) relative to vehicle control group

In vitro activity of inhibiting PDE4B (conclusion) [2]	IC50 ([3]; Homo sapiens, PBMC, LPS 1 ng/mL, 24 h, TNFα in supernatant by ELISA) [nM]	Structure (SMILES)	Decrease of average clinical symptom score compared to vehicle control group ([1]; 5 mg/kg gavage once a day for 11 days, 37th day, p<0.001)	Total pathological score (both hind limbs) ([1]; 5 mg/kg gavage once a day for 11 days, p<0.05 vs vehicle)	inhibition at 5 mg/kg ([1]; Mus musculus, po, 264 h, 5 mg/kg gavage once a day for 11 days, read-out: Inhibition rate of area under the clinical score curve (AUC) relative to vehicle control group) [%]	Average clinical symptom score ([1]; gavage once a day for 11 days, 37th day)	Clinical average score ([1]; 0.3 mg/kg gavage once a day for 11 days, 37th day, p<0.0001 vs vehicle)	Arthritis pathology (conclusion) ([1]; 1 mg/kg and 3 mg/kg dose groups)	Clinical average score ([1]; 1 mg/kg gavage once a day for 11 days, 37th day, p<0.001 vs vehicle)	Total pathological score (both hind limbs) ([1]; 1 mg/kg gavage once a day for 11 days, p<0.05 vs vehicle)	Clinical average score ([1]; 3 mg/kg gavage once a day for 11 days, 37th day, p<0.0001 vs vehicle)	Total pathological score (both hind limbs) ([1]; 3 mg/kg gavage once a day for 11 days, p<0.0001 vs vehicle)	Therapeutic effect (clinical score and arthritis pathological score) compared with Apremilast ([1]; Compound 1 at 3 mg/kg vs Apremilast at 5 mg/kg)	inhibition at 0.3 mg/kg [1, 4] [%]	inhibition at 1 mg/kg ([1]; Mus musculus, po, 264 h, 1 mg/kg gavage once a day for 11 days, read-out: Inhibition rate of area under the clinical score curve (AUC) relative to vehicle control group) [%]	inhibition at 3 mg/kg ([1]; Mus musculus, po, 264 h, 3 mg/kg gavage once a day for 11 days, read-out: Inhibition rate of area under the clinical score curve (AUC) relative to vehicle control group) [%]	Symptoms of the collagen-induced arthritis (conclusion) ([1]; three dose groups of 0.3, 1 and 3 mg/kg)	In vitro activity of inhibiting TNFα production in hPBMC (conclusion) [3]	Clinical score ([1]; 0.3 mg/kg gavage once a day, from the 30th day until the end of the experiment, p<0.0001 vs vehicle)
		CCOc1cc([C@@H](CS(C)(=O)=O)N2C(=O)c3cccc(NC(C)=O)c3C2=O)ccc1OC [Apremilast, reference compound]	3.7	13.90±1.89	41.3	4.2													
excellent in vitro activity	0.56	CCOc1cc([C@@H](CS(C)(=O)=O)n2c(=O)[nH]c3c(C)c(-c4ccccc4F)cnc32)ccc1OC [Compound 1]					3.6	significant improvement	4.3	14.00±2.43	3.5	9.20±1.83	better than that of Apremilast at 5 mg/kg	43.9	39.4	51.7	significantly improved	excellent in vitro activity	
		C[C@@H]1C[C@H]2[C@@H]3CCC4=CC(=O)C=C[C@]4(C)[C@@]3(F)[C@@H](O)C[C@]2(C)[C@@]1(O)C(=O)CO [Dexamethasone, reference compound]												96.4					0
